What was measured:
DGKA = biological target: T1, DGKA (Homo sapiens, UniProt P23743); assay: DGKA Inhibition ADP-Glo Assay; format: biochemical; conditions: 40 μM ATP
T1 construct: purchased SignalChem D21-10BG
Experimental: The DGKA inhibition reactions were performed using ADP-Glo assay. The reactions were carried out in 50 mM HEPES, 100 mM NaCl, 10 mM MgCl2, 1 mM CaCl2, 0.005% TritonX-100 and 1 mM DTT as working solution (pH=7.5). 30 nL DMSO solution of each test compound (Top concentration […] with 10 point, 4-fold dilution series for each compound) were transferred to 384 well plate by Echo and 5 μL DGKA (SignalChem, D21-10BG) enzyme working solution at 2× final reaction concentration was added to each well. After incubated at 25° C. for 15 minutes, 5 μL substrate working solution contain 40 μM ATP (Promega, V915B) and 200 µM DLG (SignalChem, D430-59) were added to initiate reaction. After enzymatic reaction at 25° C. for 60 min, ADP Glo assay reagents (Promega, V9102) were added and luminescence was recorded using an EnVision following the instruction of manual. […] The IC50 value was calculated via a regression analysis of the inhibition rate.

Human Pan T cells = assay: IL-2 Release Detection Assay; format: cell-based; conditions: T-cell; for EC50: IL-2 in supernatant by ELISA, anti-CD3 pre-coated plate, 24 hours; for maximal fold induction: Top activation/DMSO control; for activity at 0.1 µM: curve value at 100 nM/DMSO control*100%, read-out: Activation % at 100 nM
Experimental: Isolate Human Pan T cells from PBMC according to T cell isolation kit (Stemcell, 17951). The suspend T cell in RPMI 1640 medium containing 10% FBS, 1% PS and 55 µM β-Mer at a density of 3*10^6 cells/well/3 ml are seeded into 6 well plate, recovered overnight at 37° C.&[…]. Harvest overnight recovered T cells are suspended in fresh RPMI1640 medium containing 10% FBS, 1% PS and 55 μM f-Mer, seeded 1*10^5/well/200 μl cells into the anti-CD3 pre-coated 96 well plate. Add dilutions of compounds into the cells and incubate at 37° C.&5% CO2 for 24 hours. IL-2 in cell supernatant was detected by ELISA Kit (R&D, DY202). Fit the compound EC50 in non-linear regression equation: Y=Bottom+(Top−Bottom)/(1+10^((Log EC50−X)*HillSlope)), X=compound concentration, Y=Activation %. Top and Bottom: Plateaus in same units as Y. Log EC50: same log units as X. Activation fold: Top activation/DMSO control. Activation % at 100 nM: Activation of non-linear regression equation curve at the concentration of 100 nM/DMSO control*100%.

T1 sequence (P23743 whole entry): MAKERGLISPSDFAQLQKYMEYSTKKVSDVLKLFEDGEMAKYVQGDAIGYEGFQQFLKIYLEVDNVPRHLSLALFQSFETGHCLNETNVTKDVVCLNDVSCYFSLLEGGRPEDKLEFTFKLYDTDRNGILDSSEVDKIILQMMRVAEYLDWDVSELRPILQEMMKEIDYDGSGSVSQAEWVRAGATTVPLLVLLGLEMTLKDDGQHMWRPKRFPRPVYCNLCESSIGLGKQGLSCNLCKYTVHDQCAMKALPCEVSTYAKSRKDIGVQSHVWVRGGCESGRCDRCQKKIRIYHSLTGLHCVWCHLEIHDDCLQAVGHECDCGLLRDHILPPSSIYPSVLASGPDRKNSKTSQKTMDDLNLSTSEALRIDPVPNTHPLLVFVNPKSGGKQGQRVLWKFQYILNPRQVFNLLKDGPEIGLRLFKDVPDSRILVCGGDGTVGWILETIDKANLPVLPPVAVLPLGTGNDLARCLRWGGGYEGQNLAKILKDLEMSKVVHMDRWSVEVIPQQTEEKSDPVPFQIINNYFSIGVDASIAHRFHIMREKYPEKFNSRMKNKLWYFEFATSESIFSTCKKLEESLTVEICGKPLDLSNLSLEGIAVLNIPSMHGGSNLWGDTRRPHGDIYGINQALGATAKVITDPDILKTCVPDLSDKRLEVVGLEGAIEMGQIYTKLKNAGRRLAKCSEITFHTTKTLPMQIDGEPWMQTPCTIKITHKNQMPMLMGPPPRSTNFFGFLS

Compound	IC50 (DGKA)	EC50 (Human Pan T cells)	maximal fold induction (Human Pan T cells)	activity at 0.1 µM (Human Pan T cells)
Cn1c(=O)nc(N2CCOCc3c(C#CC4(C(F)(F)F)CC4)cccc32)c2cc(F)ccc21 [Example 9, 6-fluoro-1-methyl-4-(6-((1-(trifluoromethyl)cyclopropyl)ethynyl)-2,3-dihydrobenzo[e][1,4]oxazepin-1(5H)-yl)quinazolin-2(1H)-one]	< 1 nM	1370 nM	13.2	180%
Cn1c(=O)cc(N2CCOCc3c(C#CC4(C(F)(F)F)CC4)cccc32)c2cc(C#N)ccc21 [Example 4, 1-methyl-2-oxo-4-(6-((1-(trifluoromethyl)cyclopropyl)ethynyl)-2,3-dihydrobenzo[e][1,4]oxazepin-1(5H)-yl)-1,2-dihydroquinoline-6-carbonitrile]	1 to 10 nM	479 nM	10	313%
Cn1c(=O)nc(N2CCOCc3c(C#CC4(C(F)(F)F)CC4)cccc32)c2cc(Cl)c(OCCN)cc21 [Example 32, 7-(2-aminoethoxy)-6-chloro-1-methyl-4-(6-((1-(trifluoromethyl)cyclopropyl)ethynyl)-2,3-dihydrobenzo[e][1,4]oxazepin-1(5H)-yl)quinazolin-2(1H)-one]	< 1 nM	702 nM	33.9	540%
Cn1c(=O)nc(N2CCOCc3c(C#CC4(C(F)(F)F)CC4)cccc32)c2cc(Cl)c(OC3CCOCC3)cc21 [Example 25, 6-chloro-1-methyl-7-((tetrahydro-2H-pyran-4-yl)oxy)-4-(6-((1-(trifluoromethyl)cyclopropyl)ethynyl)-2,3-dihydrobenzo[e][1,4]oxazepin-1(5H)-yl)quinazolin-2(1H)-one]	< 1 nM	243 nM	5.4	275%
Cn1c(=O)cc(N2CCOCc3c(C#CC4(C(F)(F)F)CC4)cccc32)c2cc(Cl)ccc21 [Example 3, 6-chloro-1-methyl-4-(6-((1-(trifluoromethyl)cyclopropyl)ethynyl)-2,3-dihydrobenzo[e][1,4]oxazepin-1(5H)-yl)quinolin-2(1H)-one]	1 to 10 nM	422 nM	6.3	247%
Cn1c(=O)nc(N2CCOCc3c(C#CC4(C(F)(F)F)CC4)cccc32)c2cc(Cl)c(N3CCOCC3)cc21 [Example 19, 6-chloro-1-methyl-7-morpholino-4-(6-((1-(trifluoromethyl)cyclopropyl)ethynyl)-2,3-dihydrobenzo[e][1,4]oxazepin-1(5H)-yl)quinazolin-2(1H)-one]	1 to 10 nM	2190 nM	25.2	234%
Cn1c(=O)nc(N2CCOCc3c(C#CC4(C(F)(F)F)CC4)cccc32)c2cc(C#N)c(OCCO)cc21 [Example 14, 7-(2-hydroxyethoxy)-1-methyl-2-oxo-4-(6-((1-(trifluoromethyl)cyclopropyl)ethynyl)-2,3-dihydrobenzo[e][1,4]oxazepin-1(5H)-yl)-1,2-dihydroquinazoline-6-carbonitrile]	< 1 nM	265 nM	15.3	639%
COCCOc1cc2c(cc1Cl)c(N1CCOCc3c(C#CC4(C(F)(F)F)CC4)cccc31)nc(=O)n2C [Example 17, 6-chloro-7-(2-methoxyethoxy)-1-methyl-4-(6-((1-(trifluoromethyl)cyclopropyl)ethynyl)-2,3-dihydrobenzo[e][1,4]oxazepin-1(5H)-yl)quinazolin-2(1H)-one]	< 1 nM	1000 nM	10.2	202%
Cn1c(=O)c(C#N)c(N2CCOCc3c(C#CC4(C(F)(F)F)CC4)cccc32)c2cc(F)ccc21 [Example 10, 6-fluoro-1-methyl-2-oxo-4-(6-((1-(trifluoromethyl)cyclopropyl)ethynyl)-2,3-dihydrobenzo[e][1,4]oxazepin-1(5H)-yl)-1,2-dihydroquinoline-3-carbonitrile]	1 to 10 nM	2610 nM	5.8	95.5%
COc1cccc2c1COCCN2c1nc(=O)n(C)c2cc(OCCO)c(Cl)cc12 [Example 42, 6-chloro-7-(2-hydroxyethoxy)-4-(6-methoxy-2,3-dihydrobenzo[e][1,4]oxazepin-1(5H)-yl)-1-methylquinazolin-2(1H)-one]	1 to 10 nM			
Cn1c(=O)nc(N2CCOCc3c(C#CC4(C)CC4)cccc32)c2cc(Cl)c(OCCO)cc21 [Example 29, 6-chloro-7-(2-hydroxyethoxy)-1-methyl-4-(6-((1-methylcyclopropyl)ethynyl)-2,3-dihydrobenzo[e][1,4]oxazepin-1(5H)-yl)quinazolin-2(11H)-one]	< 1 nM			
Cn1c(=O)nc(N2CCOCc3c(C#CC4(C(F)(F)F)CC4)cccc32)c2cc(Cl)c(OCCCN)cc21 [Example 20, 7-(3-aminopropoxy)-6-chloro-1-methyl-4-(6-((1-(trifluoromethyl)cyclopropyl)ethynyl)-2,3-dihydrobenzo[e][1,4]oxazepin-1(5H)-yl)quinazolin-2(1H)-one]	1 to 10 nM	62.8 nM	1.7	173%
Cn1c(=O)nc(N2CCOCc3c(C#CC4(C(F)(F)F)CC4)cccc32)c2cc(C#N)c(O[C@@H]3CCOC3)cc21 [Example 24, (R)-1-methyl-2-oxo-7-((tetrahydrofuran-3-yl)oxy)-4-(6-((1-(trifluoromethyl)cyclopropyl)ethynyl)-2,3-dihydrobenzo[e][1,4]oxazepin-1(5H)-yl)-1,2-dihydroquinazoline-6-carbonitrile]	< 1 nM			
Cn1c(=O)nc(N2CCOCc3c(C#CC4(C(F)(F)F)CC4)ccnc32)c2cc(Cl)c(OCCO)cc21 [Example 30, 6-chloro-7-(2-hydroxyethoxy)-1-methyl-4-(6-((1-(trifluoromethyl)cyclopropyl)ethynyl)-2,3-dihydropyrido[2,3-e][1,4]oxazepin-1(5H)-yl)quinazolin-2(1H)-one]	< 1 nM			
Cn1c(=O)nc(N2CCOCc3c(C#CC4(C(F)(F)F)CC4)cccc32)c2cc(C#N)c(OCCN)cc21 [Example 33, 7-(2-aminoethoxy)-1-methyl-2-oxo-4-(6-((1-(trifluoromethyl)cyclopropyl)ethynyl)-2,3-dihydrobenzo[e][1,4]oxazepin-1(5H)-yl)-1,2-dihydroquinazoline-6-carbonitrile]	< 1 nM	714 nM	38.4	631%
Cn1c(=O)cc(N2CCOCc3c(C#CC4(C(F)(F)F)CC4)cccc32)c2nc(Cl)ccc21 [Example 1, 6-chloro-1-methyl-4-(6-((1-(trifluoromethyl)cyclopropyl)ethynyl)-2,3-dihydrobenzo[e][1,4]oxazepin-1(5H)-yl)-1,5-naphthyridin-2(1H)-one]	< 1 nM			
Cn1c(=O)nc(N2CCOCc3c(C#CC4(C(F)(F)F)CC4)cccc32)c2cc(Cl)c(NCCO)cc21 [Example 15, 6-chloro-7-((2-hydroxyethyl)amino)-1-methyl-4-(6-((1-(trifluoromethyl)cyclopropyl)ethynyl)-2,3-dihydrobenzo[e][1,4]oxazepin-1(5H)-yl)quinazolin-2(1H)-one]	< 1 nM			
Cn1c(=O)nc(N2CCOCc3c(C#CC4CC4)cccc32)c2cc(C#N)c(OCCO)cc21 [Example 47, 4-(6-(cyclopropylethynyl)-2,3-dihydrobenzo[e][1,4]oxazepin-1(5H)-yl)-7-(2-hydroxyethoxy)-1-methyl-2-oxo-1,2-dihydroquinazoline-6-carbonitrile]	< 1 nM			
Cn1c(=O)nc(N2CCOCc3c(C#CC4(C(F)(F)F)CC4)cccc32)c2cc(Cl)c(OC3CCOC3)cc21 (centres unmarked) [Example 11, 6-chloro-1-methyl-7-((tetrahydrofuran-3-yl)oxy)-4-(6-((1-(trifluoromethyl)cyclopropyl)ethynyl)-2,3-dihydrobenzo[e][1,4]oxazepin-1(5H)-yl)quinazolin-2(1H)-one]	< 1 nM	335 nM	8.6	324%
Cn1c(=O)nc(N2CCOCc3c(C4CC4)cccc32)c2cc(Cl)c(OCCO)cc21 [Example 37, 6-chloro-4-(6-cyclopropyl-2,3-dihydrobenzo[e][1,4]oxazepin-1(5H)-yl)-7-(2-hydroxyethoxy)-1-methylquinazolin-2(1H)-one]	1 to 10 nM			

From patent publication US20250214990A1, “DIACYLGLYCEROL KINASE (DGK) ALPHA INHIBITORS AND USES THEREOF” (Insilico Medicine IP Limited, priority 2022, published 2025)
